Article PMC7044277 (Nature Communications, 2020)
“And” between values parts separate entries of the source, which are not always exact repeats. Equal entries are not always repeated.

Experiments:
Format in all cases: cell-based
[1] = molecular target: T1, 320 non-olfactory GPCRs (Homo sapiens, UniProt Q5NUL3)
T1 construct: expressed in transfected cells; host or cells: HTLA cells

[2] = molecular target: T2, 320 non-olfactory GPCRs (Homo sapiens, UniProt P32247)
T2 construct: expressed in transfected cells; host or cells: HTLA cells
T2 sequence (P32247 whole entry): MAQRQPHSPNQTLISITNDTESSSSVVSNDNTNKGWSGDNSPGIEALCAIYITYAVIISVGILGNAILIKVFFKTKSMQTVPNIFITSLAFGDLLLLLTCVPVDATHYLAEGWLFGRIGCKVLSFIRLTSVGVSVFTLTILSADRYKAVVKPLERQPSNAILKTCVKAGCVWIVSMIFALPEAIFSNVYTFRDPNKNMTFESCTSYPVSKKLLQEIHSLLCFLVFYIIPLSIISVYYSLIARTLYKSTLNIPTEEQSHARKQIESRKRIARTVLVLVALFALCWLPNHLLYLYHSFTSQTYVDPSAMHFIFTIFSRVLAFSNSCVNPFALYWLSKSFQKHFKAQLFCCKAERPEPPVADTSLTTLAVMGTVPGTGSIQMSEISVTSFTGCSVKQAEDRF

[3] = molecular target: T3, 320 non-olfactory GPCRs (Homo sapiens, UniProt P23945)
T3 construct: expressed in transfected cells; host or cells: HTLA cells
T3 sequence (P23945 18-695): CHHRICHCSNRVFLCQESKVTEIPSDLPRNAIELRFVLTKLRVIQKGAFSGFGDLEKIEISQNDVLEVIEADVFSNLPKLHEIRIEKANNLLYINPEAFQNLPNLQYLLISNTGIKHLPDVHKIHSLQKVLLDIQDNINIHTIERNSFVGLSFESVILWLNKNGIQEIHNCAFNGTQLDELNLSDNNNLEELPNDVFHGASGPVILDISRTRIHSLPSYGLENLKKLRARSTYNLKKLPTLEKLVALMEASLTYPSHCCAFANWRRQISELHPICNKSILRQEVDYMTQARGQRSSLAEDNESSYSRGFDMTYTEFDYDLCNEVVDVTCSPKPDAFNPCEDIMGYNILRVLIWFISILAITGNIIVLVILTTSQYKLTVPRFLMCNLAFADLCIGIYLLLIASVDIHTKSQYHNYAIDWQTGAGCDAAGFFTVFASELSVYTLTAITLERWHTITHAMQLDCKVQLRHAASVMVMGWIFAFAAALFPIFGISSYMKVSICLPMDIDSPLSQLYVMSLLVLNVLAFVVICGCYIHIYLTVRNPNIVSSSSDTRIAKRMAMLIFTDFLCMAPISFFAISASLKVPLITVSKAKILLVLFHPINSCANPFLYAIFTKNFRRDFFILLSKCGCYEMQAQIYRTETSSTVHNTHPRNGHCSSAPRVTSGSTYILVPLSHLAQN

[4] = molecular target: T4, 320 non-olfactory GPCRs (Homo sapiens, UniProt P08588)
T4 construct: expressed in transfected cells; host or cells: HTLA cells
T4 sequence (P08588 whole entry): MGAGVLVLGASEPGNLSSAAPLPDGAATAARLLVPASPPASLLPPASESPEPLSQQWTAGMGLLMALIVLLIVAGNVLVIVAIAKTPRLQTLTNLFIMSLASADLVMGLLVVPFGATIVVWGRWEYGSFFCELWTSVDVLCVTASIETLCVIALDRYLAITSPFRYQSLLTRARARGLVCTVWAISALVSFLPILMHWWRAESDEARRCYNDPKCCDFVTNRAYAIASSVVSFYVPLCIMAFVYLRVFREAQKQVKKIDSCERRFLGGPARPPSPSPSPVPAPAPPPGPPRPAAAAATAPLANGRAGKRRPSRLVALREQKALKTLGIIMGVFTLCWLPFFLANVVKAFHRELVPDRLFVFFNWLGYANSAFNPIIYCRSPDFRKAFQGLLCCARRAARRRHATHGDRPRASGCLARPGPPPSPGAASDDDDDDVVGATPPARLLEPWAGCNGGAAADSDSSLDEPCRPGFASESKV
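Note: compound tested at 1 µM final concentration.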

T1 sequence (Q5NUL3 whole entry): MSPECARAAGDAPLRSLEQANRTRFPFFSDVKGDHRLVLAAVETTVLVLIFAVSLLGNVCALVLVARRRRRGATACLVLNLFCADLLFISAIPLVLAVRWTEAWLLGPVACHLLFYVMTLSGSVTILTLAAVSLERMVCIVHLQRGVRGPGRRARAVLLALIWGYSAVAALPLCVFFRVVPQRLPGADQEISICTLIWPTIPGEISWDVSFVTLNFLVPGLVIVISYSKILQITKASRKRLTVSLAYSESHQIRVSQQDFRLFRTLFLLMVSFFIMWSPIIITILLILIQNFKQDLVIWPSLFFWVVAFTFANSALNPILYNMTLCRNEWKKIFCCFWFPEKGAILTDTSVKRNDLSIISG

CCOc1cccc2cc(C(C)NCC3(O)CCCCC3)oc12 (stereo not shown) [O4LE6]
Fold of Basal [1]: 1.4501 and 0.8868 and 0.9227 and 1.231
Fold of Basal [2]: 1.192 and 1.354 and 1.033 and 1.091
Fold of Basal [3]: 0.5729 and 0.6139 and 0.617 and 0.5943
Fold of Basal [4]: 0.9495 and 0.9531 and 1.111 and 0.8261
